Structures can show the parent of a compound that is named as a salt.
Columns and labels:
dopamine D2 receptor = target: T1, dopamine D2 receptor (Homo sapiens, UniProt P14416); experiment: Dopamine D2 receptor-binding assay ([3H]Spiperone displacement); settings: inhibition of binding of 0.4 nM [3H]Spiperone, CHO-hD2L film product, room temperature 120 minutes; read-out: IC50 (affinity to D2 receptor)
T1 construct: expressed in transfected cells; host or cells: CHO-hD2L cells (membrane preparation)
Method: A Dopamine D2 Receptor-Binding Assay
An isotope ligand for D2 receptor: [^3H]Spiperone (77.0 Ci/mmol); (+)Butaclamol; GF/C glass fiber media; a liposoluble scintillation solution; and the D2 receptor protein expressed by sf9 cells.
A binding assay of a film product of CHO-hD2L cells and [^3H]Spiperone is conducted in a 250 μl of 50 mM of Tris-HCl […] buffer (Ph=7.4) solution comprising 100 mM of NaCl, 1 mM of MgC12 and 1% of DMSO. A sample in duplicate containing compounds to be tested, 0.4 nM of [^3H]Spiperone and 12 ug of protein is maintained at room temperature for 120 minutes. The bound radioactive ligand is separated by flash filtration under reduced pressure using Whatman GF/B glass fiber filter pre-treated with 0.3% polyethylenelmine, and radioactivity maintained on the filter is measured using liquid scintillation spectrophotometry. The title compounds in the following examples are tested using the above test, which comprises first of all testing competitive inhibition rate of each compound at a concentration of 10 umol/L to binding of [^3H]Spiperone to D2 receptor through a rough screening; and compounds having inhibition rate higher than 95% are subjected to receptor binding assay under a series of concentrations to determine a half-inhibitory concentration (IC50, the concentration of a compound needed for inhibiting binding of 50% [^3H]Spiperone to D2 receptor). Two tubes under each concentration are measured, and each compound is subjected to two independent tests.

rD2R = target: T2, rD2R (Rattus norvegicus, UniProt P61169); experiment: Antagonistic test of D2 receptor (cAMP radioimmunoassay, Forskolin + Dopamine, CHO-rD2 cells); type: cell-based; settings: 10 μM Forskolin + 10 μM Dopamine, cAMP generated
T2 construct: expressed in transfected cells; host or cells: CHO cells stably expressing rD2R (CHO-rD2)
Method: An Antagonistic Test of D2 Receptor
CHO-rD2 cell is seeded on a 96-well plate at a concentration of 30,000 cells/well, and cultured overnight; each medicine is dissolved in a serum-free F12 culture media containing 100 μM of IBMX, and is added to the above cell for preculturing 30 minutes at 37° C.; thereafter a serum-free F12 culture media containing 10 μM of Forskolin and 10 μM of Dopamine is added and react for 8 minutes, and then 100 μl of pre-cooled 1M HClO4 is added to terminate the reaction. The reaction solution is allowed to stand on ice for 40 minutes, and thereto 20 μl of 2M K2CO3 is added to neutralize the reaction solution. The reaction solution is centrifuged at 3,000 rpm for 15 minutes at 4° C., and a KClO4 deposit is discarded. An amount of supernatant is diluted in 0.05M of acetic acid buffer, and the amount of generated cAMP is measured with radioimmunoassay method. […] See the kit's instructions for detailed steps. Two tubes under each concentration of each compound are measured, and each compound is subjected to two independent tests.
The ordinate of the dose-effect curve represents a reduced percentage of the amount of generated cAMP through antagonist of DA by the compound.

in vivo = settings: mouse, po

T1 sequence (P14416 whole entry): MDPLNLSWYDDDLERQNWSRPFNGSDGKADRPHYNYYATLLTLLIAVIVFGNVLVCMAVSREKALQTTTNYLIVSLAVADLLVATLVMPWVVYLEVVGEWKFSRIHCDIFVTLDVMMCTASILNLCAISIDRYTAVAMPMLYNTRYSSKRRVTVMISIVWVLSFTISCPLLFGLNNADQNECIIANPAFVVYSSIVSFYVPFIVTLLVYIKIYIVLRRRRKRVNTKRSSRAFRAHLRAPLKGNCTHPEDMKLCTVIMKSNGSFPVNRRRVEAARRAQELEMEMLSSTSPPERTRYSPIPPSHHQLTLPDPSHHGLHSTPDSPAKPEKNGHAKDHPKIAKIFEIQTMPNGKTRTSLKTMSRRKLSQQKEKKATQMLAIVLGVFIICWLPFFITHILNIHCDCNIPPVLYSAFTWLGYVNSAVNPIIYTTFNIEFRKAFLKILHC
T2 sequence (P61169 whole entry): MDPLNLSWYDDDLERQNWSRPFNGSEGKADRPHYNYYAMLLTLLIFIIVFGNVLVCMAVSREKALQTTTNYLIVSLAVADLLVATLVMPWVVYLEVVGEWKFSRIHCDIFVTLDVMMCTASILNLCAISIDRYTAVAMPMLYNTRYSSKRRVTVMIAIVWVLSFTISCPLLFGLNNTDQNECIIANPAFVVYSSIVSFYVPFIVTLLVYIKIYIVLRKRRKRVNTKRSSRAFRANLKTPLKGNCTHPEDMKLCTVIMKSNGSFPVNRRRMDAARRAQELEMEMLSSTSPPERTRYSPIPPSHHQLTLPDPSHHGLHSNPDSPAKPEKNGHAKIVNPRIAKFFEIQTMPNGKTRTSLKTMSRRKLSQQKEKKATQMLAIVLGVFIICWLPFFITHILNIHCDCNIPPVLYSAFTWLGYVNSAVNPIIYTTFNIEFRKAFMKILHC

Compound	IC50 (dopamine D2 receptor) [nM]	IC50 (rD2R) [nM]	LD50 (in vivo) [mg/kg]
O=C1CCc2ccc(OCCCCN3CCC(c4noc5ccc(F)cc45)CC3)cc2N1 [II-7, 7-[4-(4-(5-fluoro-benzisoxazolyl)-1-piperidinyl)-n-butoxy]-3,4-dihydro-2(1H)-quinolinone hydrochloride]	12.6	–	–
O=C1CCc2ccc(OCCCCN3CCN(c4noc5cc(F)ccc45)CC3)cc2N1 [I-4, 7-[4-(4-(6-fluoro-benzisoxazolyl)-1-piperazinyl)-n-butoxy]-3,4-dihydro-2(1H)-quinolinone hydrochloride]	10.2	–	–
COc1ccc2onc(C3CCN(CCCCOc4ccc5c(c4)NC(=O)CC5)CC3)c2c1 [II-6, 7-[4-(4-(5-methoxy-benzisoxazolyl)-1-piperidinyl)-n-butoxy]-3,4-dihydro-2(1H)-quinolinone hydrochloride]	277	–	–
O=C1CCc2ccc(OCCCCN3CCC(c4noc5cc(O)c(O)cc45)CC3)cc2N1 [II-10, 7-[4-(5,6-dihydroxy-benzisoxazolyl)-1-piperidinyl)-n-butoxy]-3,4-dihydro-2(1H)-quinolinone hydrochloride]	45.6	–	–
COc1cccc2snc(N3CCN(CCCCOc4ccc5c(c4)NC(=O)CC5)CC3)c12 [III-7, 7-[4-(4-methoxy-1,2-benzisothiazolyl)-1-piperazinyl]-n-butoxy]-3,4-dihydro-2(1H)-quinolinone hydrochloride]	168	–	–
O=C1Cc2ccc(OCCCCN3CCC(c4noc5cc(F)ccc45)CC3)cc2N1 [IV-1, 6-[4-(4-(3-(6-fluoro-benzisoxazolyl))-1-piperidinyl)-n-butoxy)-indoline-2-one]	38.9	198000	–
O=C1Cc2cc(CCN3CCN(c4nsc5ccccc45)CC3)c(Cl)cc2N1 [ziprasidone]	–	–	1600
6-[4-(4-(3-(6-fluoro-benzisoxazolyl))-1-piperazinyl)-n-butoxy]-(1H)-indole [IV-3]	12.3	–	–
O=C1CCc2ccc(OCCCCN3CCN(c4noc5cc(C(F)(F)F)ccc45)CC3)cc2N1 [I-5, 7-[4-(4-(6-trifluoromethyl-benzisoxazolyl)-1-piperazinyl)-n-butoxy]-3,4-dihydro-2(1H)-quinolinone hydrochloride]	53.6	–	–
O=C1CCc2ccc(OCCCCN3CCN(c4noc5cc(Cl)ccc45)CC3)cc2N1 [I-1, 7-[4-(4-(6-chloro-benzisoxazolyl)-1-piperazinyl)-n-butoxy]-3,4-dihydro-2(1H)-quinolinone hydrochloride]	25.7	–	–
O=C1CCc2ccc(OCCCCN3CCC(c4noc5cc(Cl)ccc45)CC3)cc2N1 [II-5, 7-[4-(4-(6-chloro-benzisoxazolyl)-1-piperidinyl)-n-butoxy]-3,4-dihydro-2(1H)-quinolinone hydrochloride]	15.8	–	–
COc1ccc2onc(N3CCN(CCCCOc4ccc5c(c4)NC(=O)CC5)CC3)c2c1 [I-9, 7-[4-(4-(5-methoxy-benzisoxazolyl)-1-piperazinyl)-n-butoxy]-3,4-dihydro-2(1H)-quinolinone hydrochloride]	25	–	–
O=C1CCc2ccc(OCCCCN3CCN(c4noc5cc(O)ccc45)CC3)cc2N1 [I-8, 7-[4-(4-(6-hydroxy-benzisoxazolyl)-1-piperazinyl)-n-butoxy]-3,4-dihydro-2(1H)-quinolinone hydrochloride]	157	–	–
O=C1CCc2ccc(OCCCCCN3CCC(c4noc5cc(F)ccc45)CC3)cc2N1 [II-3, 7-[5-(4-(6-fluoro-benzisoxazolyl)-1-piperidinyl)-pentyloxy]-3,4-dihydro-2(1H)-quinolinone hydrochloride]	202	–	–
O=C1CCc2ccc(OCCCN3CCC(c4noc5cc(F)ccc45)CC3)cc2N1 [II-2, 7-[3-(4-(6-fluoro-benzisoxazolyl)-1-piperidinyl)-n-propoxy]-3,4-dihydro-2(1H)-quinolinone hydrochloride]	16.2	–	–
O=C1CCc2ccc(OCCCCN3CCN(c4noc5ccc(Cl)cc45)CC3)cc2N1 [I-2, 7-[4-(4-(5-chloro-benzisoxazolyl)-1-piperazinyl)-n-butoxy]-3,4-dihydro-2(1H)-quinolinone hydrochloride]	56.8	–	–
COc1ccc2c(N3CCN(CCCCOc4ccc5c(c4)NC(=O)CC5)CC3)noc2c1Br [I-12, 7-[4-(4-(7-bromo-6-methoxy-benzisoxazolyl)-1-piperazinyl)-n-butoxy]-3,4-dihydro-2(1H)-quinolinone hydrochloride]	10.2	–	–
O=C1CCc2ccc(OCCCCN3CCC(c4noc5ccc(O)cc45)CC3)cc2N1 [II-9, 7-[4-(5-hydroxy-benzisoxazolyl)-1-piperidinyl)-n-butoxy]-3,4-dihydro-2(1H)-quinolinone hydrochloride]	78.8	–	–
Cc1ccc2onc(N3CCN(CCCCOc4ccc5c(c4)NC(=O)CC5)CC3)c2c1 [I-7, 7-[4-(4-(5-methyl-benzisoxazoly)-1-piperazinyl)-n-butoxy]-3,4-dihydro-2(1H)-quinolinone hydrochloride]	290	–	–
O=C1CCc2ccc(OCCCCN3CCC(c4noc5ccccc45)CC3)cc2N1 [II-4, 7-[(4-benzisoxazolyl-1-piperidinyl)-n-butoxy]-3,4-dihydro-2(1H)-quinolinone hydrochloride]	23.6	–	–
COc1cc2onc(C3CCN(CCCCOc4ccc5c(c4)NC(=O)CC5)CC3)c2cc1OC [II-8, 7-[4-(4-(5,6-dimethoxy-benzisoxazolyl)-1-piperidinyl)-n-butoxy]-3,4-dihydro-2(1H)-quinolinone hydrochloride]	23.8	–	–
COc1ccc2c(N3CCN(CCCCOc4ccc5c(c4)NC(=O)CC5)CC3)nsc2c1 [III-4, 7-[4-(6-methoxy-1,2-benzisothiazolyl)-1-piperazinyl]-n-butoxy]-3,4-dihydro-2(1H)-quinolinone of hydrochloride]	17.9	–	–
O=C1CCc2ccc(OCCCCN3CCN(c4nsc5ccccc45)CC3)cc2N1 [III-1, 7-[4-(1,2-benzisothiazol-3-yl)-1-piperazinyl)-n-butoxy]-3,4-dihydro-2(1H)-quinolinone hydrochloride]	5.23	56400	–
O=C1CCc2ccc(OCCCCN3CCN(c4noc5ccc(Br)cc45)CC3)cc2N1 [I-11, 7-[4-(4-(5-bromo-benzisoxazolyl)-1-piperazinyl)-n-butoxy]-3,4-dihydro-2(1H)-quinolinone hydrochloride]	77.8	–	–
O=C1CCc2ccc(OCCCCN3CCN(c4noc5ccccc45)CC3)cc2N1 [I-3, 7-[4-(4-(benzisoxazolyl)-1-piperazinyl)-n-butoxy]-3,4-dihydro-2(1H)-quinolinone hydrochloride]	99.3	–	–
COc1ccc2snc(N3CCN(CCCCOc4ccc5c(c4)NC(=O)CC5)CC3)c2c1 [III-6, 7-[4-(5-methoxy-1,2-benzisothiazolyl)-1-piperazinyl]-n-butoxy]-3,4-dihydro-2(1H)-quinolinone hydrochloride]	15	–	–
O=C1CCc2ccc(OCCCN3CCN(c4nsc5ccccc45)CC3)cc2N1 [III-2, 7-[3-(1,2-benzisothiazolyl)-1-piperazinyl]-n-propoxy]-3,4-dihydro-2(1H)-quinolinone hydrochloride]	76.8	–	–
COc1cccc2c(N3CCN(CCCCOc4ccc5c(c4)NC(=O)CC5)CC3)nsc12 [III-5, 7-[4-(7-methoxy-1,2-benzisothiazolyl)-1-piperazinyl]-n-butoxy-3,4-dihydro-2(1H)-quinolinone hydrochloride]	15.8	–	–

Reference: patent publication US8653069B2, “Aralkyl substituted piperidine or piperazine derivatives and their use for treating schizophrenia” (Jiangsu Hengyi Pharmaceutical Co., Ltd., priority 2008, dated 2014)
